Data: the supplement of paper PMC10307832

Assays:
Assay in all cases: relative viability (nuclei count vs DMSO), 5 days (fraction); higher = more cells survive
VX-11e + Crizotinib = compound: CC1=CN=C(N=C1C2=CNC(=C2)C(=O)N[C@H](CO)C3=CC(=CC=C3)Cl)NC4=C(C=C(C=C4)F)Cl [VX-11e] + C[C@@H](Oc1cc(-c2cnn(C3CCNCC3)c2)cnc1N)c1c(Cl)ccc(F)c1Cl [Crizotinib] (partner 1 µM)
Summary of the method: (§1)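 Relative viability was taken as the ratio of nuclei in treated wells to nuclei in vehicle wells. Lung cancer cell lines in 1536-well plates received compounds by pin tool one day after seeding, either one drug alone or a fixed anchor-drug dose plus five library-drug doses (not always all listed) in √10 steps. Nuclei were counted on 4× images after 5 days of treatment, and values are medians of duplicate plates.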

VX-11e + Phenformin = compound: CC1=CN=C(N=C1C2=CNC(=C2)C(=O)N[C@H](CO)C3=CC(=CC=C3)Cl)NC4=C(C=C(C=C4)F)Cl [VX-11e] + N=C(N)NC(=N)NCCc1ccccc1 [Phenformin] (partner 250 µM)
Summary of the method: as §1

VX-11e + Navitoclax = compound: CC1=CN=C(N=C1C2=CNC(=C2)C(=O)N[C@H](CO)C3=CC(=CC=C3)Cl)NC4=C(C=C(C=C4)F)Cl [VX-11e] + CC1(C)CCC(c2ccc(Cl)cc2)=C(CN2CCN(c3ccc(C(=O)NS(=O)(=O)c4ccc(N[C@H](CCN5CCOCC5)CSc5ccccc5)c(S(=O)(=O)C(F)(F)F)c4)cc3)CC2)C1 [Navitoclax] (partner 0.5 µM)
Summary of the method: as §1

VX-11e + Decitabine = compound: CC1=CN=C(N=C1C2=CNC(=C2)C(=O)N[C@H](CO)C3=CC(=CC=C3)Cl)NC4=C(C=C(C=C4)F)Cl [VX-11e] + Nc1ncn([C@H]2C[C@H](O)[C@@H](CO)O2)c(=O)n1 [Decitabine] (partner 2 µM)
Summary of the method: as §1

| Cell Line | relative viability (VX-11e + Crizotinib; first compound 0.04 µM) | relative viability (VX-11e + Crizotinib; first compound 0.1265 µM) | relative viability (VX-11e + Crizotinib; first compound 0.4 µM) | relative viability (VX-11e + Crizotinib; first compound 1.265 µM) | relative viability (VX-11e + Crizotinib; first compound 4 µM) | relative viability (VX-11e + Phenformin; first compound 0.04 µM) | relative viability (VX-11e + Phenformin; first compound 0.1265 µM) | relative viability (VX-11e + Phenformin; first compound 0.4 µM) | relative viability (VX-11e + Phenformin; first compound 1.265 µM) | relative viability (VX-11e + Phenformin; first compound 4 µM) | relative viability (VX-11e + Navitoclax; first compound 0.04 µM) | relative viability (VX-11e + Navitoclax; first compound 0.1265 µM) | relative viability (VX-11e + Navitoclax; first compound 0.4 µM) | relative viability (VX-11e + Navitoclax; first compound 1.265 µM) | relative viability (VX-11e + Navitoclax; first compound 4 µM) | relative viability (VX-11e + Decitabine; first compound 0.04 µM) | relative viability (VX-11e + Decitabine; first compound 0.1265 µM) | relative viability (VX-11e + Decitabine; first compound 0.4 µM) | relative viability (VX-11e + Decitabine; first compound 1.265 µM) | relative viability (VX-11e + Decitabine; first compound 4 µM) |
| --- | --- | --- | --- | --- | --- | --- | --- | --- | --- | --- | --- | --- | --- | --- | --- | --- | --- | --- | --- | --- |
| PC-3 [JPC-3] | 0.993 | 0.963 | 0.93 | 1.07 | 0.845 | 0.436 | 0.476 | 0.486 | 0.489 | 0.414 | 0.786 | 0.803 | 0.682 | 0.831 | 0.743 | 0.839 | 0.813 | 0.809 | 0.788 | 0.705 |
| PC-14 | 0.993 | 0.916 | 0.861 | 0.878 | 0.506 | 0.539 | 0.552 | 0.196 | 0.472 | 0.239 | 1.05 | 1.04 | 1.09 | 0.978 | 0.727 | 0.243 | 0.19 | 0.202 | 0.247 | 0.235 |
| RERF-LC-KJ | 0.899 | 0.834 | 0.881 | 0.863 | 0.753 | 0.403 | 0.427 | 0.408 | 0.372 | 0.315 | 0.849 | 1.1 | 0.977 | 0.946 | 0.619 | 0.707 | 0.703 | 0.592 | 0.807 | 0.62 |
| SK-LU-1 | 0.987 | 0.761 | 0.789 | 0.735 | 0.407 | 0.474 | 0.492 |  | 0.356 | 0.156 | 1.06 | 0.817 | 0.508 | 0.634 | 0.168 | 0.619 | 0.589 | 0.472 | 0.668 | 0.308 |
| SK-MES-1 | 1.09 | 0.966 | 1.05 | 0.964 | 0.643 | 0.693 | 0.64 | 0.694 | 0.618 | 0.368 | 1.21 | 1.15 | 1.24 | 1.1 | 0.408 | 0.341 | 0.384 | 0.363 | 0.4 | 0.272 |
| SW 1573 | 0.871 | 0.789 | 0.743 | 0.793 | 0.451 | 0.39 | 0.346 | 0.289 | 0.287 | 0.154 | 1.12 | 0.959 | 0.945 | 0.672 | 0.553 | 0.384 | 0.446 | 0.363 | 0.372 | 0.22 |
| UMC-11 | 0.699 | 0.785 | 0.574 | 0.511 | 0.662 | 0.291 | 0.309 | 0.28 | 0.301 | 0.283 | 0.288 | 0.263 | 0.295 | 0.324 | 0.327 |  | 0.495 | 0.472 | 0.454 | 0.594 |
